Reference: PubChem BioAssay AID1963597 (National Center for Advancing Translational Sciences (NCATS), 2024)

Test system: human liver microsomes, metabolic stability half-life
Assay: NCATS Human Liver Microsomal (HLM) Stability Profiling
Conditions: higher = more stable; screened at 1 µM (by protocol)
Summary of the method: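 Substrate depletion (in vitro t1/2): 1 µM compound with 0.5 mg/mL microsomes and NADPH regenerating system, phosphate buffer pH 7.4, 37 °C. Sampled at 0, 5, 10, 15, 30, 60 min into cold acetonitrile with albendazole internal standard for MS quantification.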

SMILES | half-life [min]
CCOC(=O)C(c1c(O)c2ccccc2oc1=O)c1c(O)c2ccccc2oc1=O | 10.3
Cn1c(=O)c2c(nc(CN3CCN(C(=O)C4CC4)CC3)n2Cc2ccccc2Cl)n(C)c1=O | 24.1
CCN1C(=O)NC(c2ccccc2)C1=O (configuration not stated) | > 120
CCn1c(-c2nonc2N)nc2c(C#CCO)ncc(OCCCN)c21 | > 120
CC1(C#N)CCN(c2c(C(=O)N3CCN(C(=O)N4CCCC4)CC3)cnc3c(F)cc(F)cc23)CC1 | 27.2
CCCc1nc(C)c2c(=O)[nH]c(-c3cc(S(=O)(=O)N4CCN(CC)CC4)ccc3OCC)nn12 | > 120
CCC(C)(C)c1ccc(CC(C)CN2C[C@@H](C)O[C@@H](C)C2)cc1 (some centres not stated) | 12.2
CC(C)CC(N(C)C)C1(c2ccc(Cl)cc2)CCC1 (configuration not stated) | 3.57
NC(=O)N1CCC(CC(=O)N2CCC(C3c4ncc(Br)cc4CCc4cc(Cl)cc(Br)c43)CC2)CC1 (configuration not stated) | 5.45
CCN1CCCC1CNC(=O)C(O)(c1ccccc1)c1ccccc1 (configuration not stated) | > 120
CN(C(=O)CN(CCO)CC(=O)N(C)C(C)(C)Cc1ccccc1)C(C)(C)Cc1ccccc1 | 0.58
CN1CCN(C(=O)Cc2cccn2-c2ccc(F)cc2)CC1 | > 120
COc1cc(NS(=O)(=O)c2ccc(N)cc2)nc(OC)n1 | > 120
Cc1nc(C2CCCCC2)c(-c2ccc(S(N)(=O)=O)c(F)c2)o1 | 30.7
C#Cc1cccc(Nc2ncnc3cc(OCCOC)c(OCCO)cc23)c1 | > 120
O=C(NCc1ccc(OC(F)(F)F)cc1)C1c2c(F)cccc2C(=O)N1CCc1ccccn1 (configuration not stated) | 6.61
C1COC(NC(C2CC2)C2CC2)=N1 | > 120
Cc1cc2c(cc1S(N)(=O)=O)S(=O)(=O)CCC2 | > 120
CC(C)(C)CC(=O)OCC(=O)[C@@]1(O)CC[C@H]2[C@@H]3CCC4=CC(=O)C=C[C@]4(C)[C@H]3[C@@H](O)C[C@@]21C | 2.13
Cc1cc(C(=O)N2CCCCc3ccccc32)ccc1CNC(=O)N1CCC[C@H]1C(=O)N(C)C | 6.54
O=C1CCC(c2ccccc2)(C2CCN(Cc3ccc(I)cc3)CC2)C(=O)N1 (configuration not stated) | > 120
CCc1c(O)cc(O)c(C(=O)c2ccc(OCCN3CCOCC3)c(OC)c2)c1CC(=O)N(CCOC)CCOC | 41.4
CNc1cccc(CCOc2ccc3c(c2)CN(CC(F)(F)F)C(=O)[C@H](CC(=O)O)C3)n1 | > 120
CCCCNc1ncc(C(=O)NCc2ccc(-n3ccnc3)cc2)c(NC2CCC(O)CC2)n1 (configuration not stated) | 33
Cc1cccc(C(=O)O)c1O | > 120
C(#Cc1cccc(CN2CCOCC2)c1)CCN1CCCCC1 | > 120

SMILES | half-life [min]
O=C(O)CCCc1ccccc1 | > 120
CCOc1ccc(NS(=O)(=O)c2ccc(N)cc2)nn1 | > 120
CC[C@H](C)C(=O)O[C@H]1C[C@@H](C)C=C2C=C[C@H](C)[C@H](CC[C@@H]3C[C@@H](O)CC(=O)O3)[C@H]21 | 7.05
NS(=O)(=O)c1ccc(Cc2c(-c3cccc(-c4ccccc4)c3)nn(-c3nc(C(=O)O)cs3)c2CC2CC2)cc1 | 83.6
COc1ccc2cc(OCC3(C(=O)O)CN(C(=O)c4ccc(F)cc4)C3)ccc2c1 | 8.64
CCCC(C)(COC(N)=O)COC(=O)NC(C)C (configuration not stated) | > 120
CCN1CCc2nc(N)oc2CC1 | 112
CN1CCN(CCCN2c3ccccc3Sc3ccc(C(F)(F)F)cc32)CC1 | 22.5
COc1ccc(CCO[C@@H]2CCCC[C@H]2N2CC[C@@H](O)C2)cc1OC | > 120
CO/N=C(\C(=O)O)c1csc(NC(=O)CCl)n1 | 11.4
CCOP(=S)(OCC)Oc1nc(Cl)c(Cl)cc1Cl | 1.81
CCOc1ccc(NC(=O)N2CCN(c3ccc(Cl)c(Cl)c3)CC2)cc1 | > 120
CCC(=O)N1CCC(n2nccc2NC(=O)Nc2ccccc2Cl)CC1 | 89.7
OCc1ccccn1 | > 120
C[C@]12Cc3cn[nH]c3C[C@@H]1CC[C@@H]1[C@@H]2CC[C@@]2(C)[C@H]1CC[C@]2(C)O | 24
CN(C)CC#CCCC(=O)C(O)(c1ccccc1)C1CCC1 (configuration not stated) | 102
COc1ccc(-n2nc(CCC(=O)N(C)O)cc2-c2ccc(Cl)cc2)cc1 | 39.1
Clc1ccc(C(Cn2ccnc2)OCc2ccc(Sc3ccccc3)cc2)c(Cl)c1 (configuration not stated) | 54.1
CN1c2cc(C(=O)Nc3ccc(C#N)cc3)ccc2C(=O)N2CCCCC21 (configuration not stated) | 44.3
CC(C)C(Br)C(=O)NC(N)=O (configuration not stated) | > 120
Cc1ccccc1C(C(=O)NC1CCCCC1)N(C(=O)CNc1ccc(C#N)cc1)c1cccc(F)c1 (configuration not stated) | 2.58
CC(Cc1ccc2c(c1)OCO2)NCC(O)c1ccc(O)c(O)c1 (configuration not stated) | 18.6
COc1ccc(N(C(=O)Nc2c(C)cccc2C)c2cc(Nc3ccc(N4CCN(C)CC4)cc3)ncn2)c(OC)c1 | 17.1
CC1(C)C(=O)C(C)(C)c2cc(C(=O)Nc3ccc(C(=O)O)cc3)ccc21 | > 120
CCN1CCN(Cc2ccc(NC(=O)c3ccc(C)c(/C=C/c4cnc5[nH]ccc5c4OC)c3)cc2C(F)(F)F)CC1 | > 120
O=C1CC2(CCCC2)CC(=O)N1CCNC[C@H]1COc2ccccc2O1 | 8.26

SMILES | half-life [min]
COc1cc(Nc2nc3ccccc3nc2NS(=O)(=O)c2cccc(NC(=O)c3ccc(C)c(OC)c3)c2)cc(OC)c1 | 14
CCCSP(=S)(OCC)Oc1ccc(SC)cc1 (configuration not stated) | > 120
CCN(Cc1ccncc1)C(=O)[C@@H](CO)c1ccccc1 | > 120
O=C(CO)N1CCC(c2[nH]nc(-c3ccc(Cl)cc3)c2-c2ccncn2)CC1 | > 120
COc1cc(C(c2c(C)[nH][nH]c2=O)c2c(C)[nH][nH]c2=O)ccc1OC(=O)c1cccc(C)c1 | 2.21
CC(C)c1nn(-c2c(Cl)cccc2Cl)c2nc(Cc3ccc(OCCO)cc3)[nH]c(=O)c12 | 32.2
CC(=O)N1CCC(Cc2ccc(C(=O)NC3CC3)cc2)CC1 | > 120
COc1cccc(NC(=O)c2oc3ccc(S(=O)(=O)N4CCC5(CC4)OCCO5)cc3c2C)c1 | 12.2
CCN(CC)CCNc1ccc(CO)c2sc3ccccc3c(=O)c12 | 90.3
COc1ccccc1OC[C@H](O)COC(N)=O | > 120
COc1cc(O)cc(O)c1 | > 120
O=C(Nc1c(-c2cccs2)nc2ccccn12)c1ccc(Cl)cc1 | > 120
COc1ccc(Sc2ccc(NC(=O)c3ccccc3Cl)cc2C#N)cc1 | 31.4
CC1=C(C(=O)Nc2cc3cn[nH]c3cc2F)C(c2ccc(Cl)cc2F)N=C(c2ccnc(Cl)c2)N1 (configuration not stated) | 14.2
Cc1cccc(C)c1OCC(C)N (configuration not stated) | 114
COc1ccc2cc(-c3cc(-c4cc(Cl)cc(Cl)c4)nn3C(C)c3ccc(C(=O)NCCC(=O)O)cc3)ccc2c1 (configuration not stated) | > 120
CN(C)CC/C=C1\c2ccccc2Sc2ccc(Cl)cc21 | 24.3
CCOCCCNC(=O)CCC(=O)NNc1nc2ccccc2c2nc(-c3ccccc3)nn12 | 88
Cc1noc(-c2ccc(-c3ccc(CC(=O)O)cc3)cc2)c1NC(=O)O[C@H](C)c1ccccc1Cl | 29.7
O=C1COc2nccc(-c3ccccc3F)c2CN1Cc1cc(C(F)(F)F)cc(C(F)(F)F)c1 | 2.5
O=C(Nc1ncc(-c2cc(C(F)F)nn2-c2c(Cl)cccc2Cl)s1)C1CC1 | > 120
COc1cc(N2CCOCC2)ccc1NC(=O)c1csc(-c2cccnc2)n1 | 30.2
c1ccc(C2CC2)c(OCC2=NCCN2)c1 | > 120
C[C@@H](Oc1cc(-n2cnc3ccc(OC4CCN(C)CC4)cc32)sc1C(N)=O)c1ccccc1C(F)(F)F | 8.99
COC(=O)[C@H](Cc1cccc(C(=N)N)c1)[C@@H](C)NC(=O)c1ccc(-c2cc[n+]([O-])cc2)cc1 | > 120
COP(=S)(OC)Oc1ccc(SC)c(C)c1 | 4.44

SMILES | half-life [min]
Cc1nc(N)nc(N)c1-c1ccc(Cl)c(Cl)c1 | > 120
CC(C)(C)c1coc([C@@H]2COCCN2Cc2cccc(C#N)c2)n1 | 10.4
Clc1ccccc1-c1nc(-c2ccncc2)no1 | 35.8
CCOc1cccc(NC(=O)c2ccc(N3CCCC3)c(C(F)(F)F)c2)c1 | 23
O=C1NC(=Nc2ccccc2F)S/C1=C\c1ccc(C(=O)O)cc1 | 52.4
COc1cc(C(c2c(C)[nH][nH]c2=O)c2c(C)[nH][nH]c2=O)ccc1OC(=O)c1ccccc1F | 1.83
O=C(CC1N=C2c3ccccc3N=C(SCc3ccc(Cl)cc3)N2C1=O)NCCc1ccccc1 (configuration not stated) | 4.19
C[C@]12CCC(=O)C=C1[C@@H]1C[C@@H]1[C@H]1[C@@H]3[C@@H]4C[C@@H]4[C@@]4(CCC(=O)O4)[C@@]3(C)CC[C@@H]12 | > 120
CC1(C)O[C@@H]2C[C@H]3[C@@H]4CCC5=CC(=O)C=C[C@]5(C)[C@@]4(F)[C@@H](O)C[C@]3(C)[C@]2(C(=O)CO)O1 | 27.3
COC(=O)N[C@@H](C)CNc1nccc(-c2cn(C(C)C)nc2-c2cc(Cl)cc(NS(C)(=O)=O)c2F)n1 | 34.4
COc1ccc(CNC(=O)c2cnn(-c3ccc(C)cc3)c2C2CCN(C(=O)OC(C)(C)C)CC2)cc1 | 0.7
COc1ccc2c(c1OC)C(=O)O[C@@H]2[C@H]1c2cc3c(cc2CCN1C)OCO3 | 103
CCCCNc1c(C(=O)OCC)c(C)nc2c1cnn2CC | 5.85
O=C(NCC1CCN(Cc2cccc(Cl)c2)CC1)[C@@H]1CCCN(c2ncnc3c2nc2n3CCCC2)C1 | 8.65
CCc1cc2cc(OC)c(OC)cc2c(Cc2ccccc2)n1 | 8.36
COCC1(CO)C(=O)C2CCN1CC2 (configuration not stated) | > 120
Cc1ccccc1C(=O)Nc1ccc(C(=O)N2CCCC(O)c3cc(Cl)ccc32)c(C)c1 (configuration not stated) | 13.9
CC(CN(C)C)CN1C2=C(CCCC2)SC2CCCCC21 (configuration not stated) | 14.3
CCC1CCCCN1CC(=O)N1CCCc2c1c(=O)oc1ccc(OCc3ccccc3)cc21 (configuration not stated) | 0.54
O=C(O)c1ccccc1NCCc1ccccc1 | 23.8
COc1ccc(C2c3c(oc4ccc(Cl)cc4c3=O)C(=O)N2CCCN(C)C)cc1OC (configuration not stated) | > 120
CCCCCOC(=O)Nc1nc(=O)n([C@@H]2O[C@H](C)[C@@H](O)[C@H]2O)cc1F | > 120
COc1cc2c(NC3CCN(CC4CCCCC4)CC3)nc(N3CCCN(C(C)C)CC3)nc2cc1OCCCN1CCCCC1 | 30
CC1(c2ccccc2)N(Cc2ccccc2)C(=O)OC12CCN(Cc1cccc(C#N)c1)CC2 (configuration not stated) | 2.04
